# Patent publication US8859620B2, “Phthalanilate compounds and methods of use” (University of Notre Dame du Lac, priority 2009, dated 2014)
# Read-outs that look alike come from different tables or passages of the source.
# Experiments:
# [1] = molecular target: TEM-1 (class A β-lactamase) (Escherichia coli, UniProt P62593); test: β-Lactamase assay (nitrocefin colour change), TEM-1; format: biochemical; settings: Table 10; class symbols x/xx/xxx, key not given
# Description: (§1) β-Lactamase Assays (TEM-1, P99, and OXA-10): The activity of the compounds of the invention (inhibitors) toward β-lactamases was evaluated using 96 well plates. The reaction mixture included 10 mM sodium phosphate, pH 7.0, 150 mM sodium chloride, 0.01% Triton X-100, 100 μM nitrocefin, 10 nM of β-lactamases (class A: TEM-1; class C: P99, or class D: OXA-10), and variable concentrations of the inhibitors in a total volume of 100 μL. β-Lactamases were pre-incubated with the compounds at room temperature for 5 minutes, and the assay was initiated by the addition of nitrocefin. The inhibition of the enzyme activity by the compounds was determined by monitoring color change (from yellow to red) of nitrocefin after 20 minutes. Stock solutions of the compounds were prepared in dimethyl sulfoxide (DMSO). No more than 5% DMSO was present in assays, unless noted otherwise. B1aR Assay: The surface domain of B1aR (1 μM) was added to each inhibitor (at various concentrations) in 100 mM sodium phosphate, 50 mM sodium bicarbonate, at pH 7.0. The reaction mixtures were incubated at room temperature for 20 minutes. BOCILLIN FL, a fluorogenic ligand, was added to a concentration of 20 μM in a final volume of 20 μL. The mixtures were incubated at 37° C. for 5 minutes, at which point the reactions were quenched by the addition of 15 μL of the SDS sample buffer (125 mM Tris, 4% SDS, 20% glycerol, 2% 2-mercaptoethanol, pH 6.8), and were boiled for 4 minutes. The samples were loaded onto 15% SDS-PAGE, the gel was developed and scanned using a Storm 840® Fluorimager. The fluorescent bands of BOCILLIN FL-labeled B1aR^S were analyzed by Image Quant 5.2 software. PBP2 Assay: The PBP2 assay was performed according to the methods of Villegas-Esterada et al. (J. Am. Chem. Soc. 2008, 130, 9212-9213).
# [2] = molecular target: OXA-10 (class D β-lactamase) (Pseudomonas aeruginosa, UniProt P14489); test: β-Lactamase assay (nitrocefin colour change), OXA-10; format: biochemical; settings: Table 10; class symbols x/xx/xxx, key not given
# Description: as §1
# [3] = molecular target: P99 (class C β-lactamase) (Enterobacter cloacae, UniProt P05364); test: β-Lactamase assay (nitrocefin colour change), P99; format: biochemical; settings: Table 10; class symbols x/xx/xxx, key not given
# Description: as §1
# [4] = system: S. aureus NRS11 (Mec^S); test: MIC against S. aureus NRS11 (Table 13); format: cell-based, Staphylococcus aureus; settings: for MIC: compounds dissolved in DMSO or 1% sodium carbonate; for inhibitory properties (in words): Table 13
# Description: All recited compounds were dissolved in DMSO or in 1% sodium carbonate and transferred to micro titer plates to final concentrations of 1000 μg/mL.
# [5] = system: S. aureus NRS100 (Mec^R); test: MIC against S. aureus NRS100 (Table 14); format: cell-based, Staphylococcus aureus; settings: for MIC: compounds dissolved in DMSO or 1% sodium carbonate; for inhibitory activity (in words): Table 14
# Description: The recited compounds were dissolved in DMSO or in 1% sodium carbonate and transferred into micro titer plate to final concentration of 1000 μg/mL.
# [6] = Staphylococcus aureus, read-out: MIC
# Sequence of TEM-1 (class A β-lactamase) (P62593 24-286 limits assumed): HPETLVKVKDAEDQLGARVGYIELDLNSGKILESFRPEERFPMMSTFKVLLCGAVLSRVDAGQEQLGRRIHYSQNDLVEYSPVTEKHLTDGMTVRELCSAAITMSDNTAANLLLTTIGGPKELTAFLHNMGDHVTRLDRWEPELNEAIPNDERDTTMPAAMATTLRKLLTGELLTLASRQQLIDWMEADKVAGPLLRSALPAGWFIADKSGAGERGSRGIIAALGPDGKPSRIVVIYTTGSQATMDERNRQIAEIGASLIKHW
# Sequence of OXA-10 (class D β-lactamase) (P14489 20-266, species assumed): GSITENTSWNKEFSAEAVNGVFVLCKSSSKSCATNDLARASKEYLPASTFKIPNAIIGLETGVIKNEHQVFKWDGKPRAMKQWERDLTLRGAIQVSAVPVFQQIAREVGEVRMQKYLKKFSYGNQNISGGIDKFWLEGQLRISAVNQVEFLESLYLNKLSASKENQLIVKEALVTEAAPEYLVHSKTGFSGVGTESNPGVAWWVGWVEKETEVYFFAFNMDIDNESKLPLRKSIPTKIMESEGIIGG
# Sequence of P99 (class C β-lactamase) (P05364 21-381): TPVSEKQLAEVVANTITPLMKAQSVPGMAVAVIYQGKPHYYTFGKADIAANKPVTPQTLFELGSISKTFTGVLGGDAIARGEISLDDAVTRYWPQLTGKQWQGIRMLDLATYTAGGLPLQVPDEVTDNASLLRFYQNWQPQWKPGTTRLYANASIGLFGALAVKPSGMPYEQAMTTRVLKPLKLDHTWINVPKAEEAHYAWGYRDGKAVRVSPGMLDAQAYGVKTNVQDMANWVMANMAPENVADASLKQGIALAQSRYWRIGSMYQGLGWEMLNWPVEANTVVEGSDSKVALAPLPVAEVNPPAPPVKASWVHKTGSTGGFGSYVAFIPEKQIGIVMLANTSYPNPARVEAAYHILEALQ
compound,measurement,setting,value
O=C(O)c1c(Cl)c(Cl)c(Cl)c(Cl)c1C(=O)Nc1ccc(Cl)c(C(F)(F)F)c1 [Compound 258],TEM-1,[1],xxx
same,OXA-10,[2],xx
same,P99,[3],xx
O=C1c2c(Br)c(Br)c(Br)c(Br)c2C(=O)N1c1ccc(OCc2ccccc2)c(Cl)c1 [Compound 227],TEM-1,[1],xxx
same,OXA-10,[2],xxx
O=C1C2=C(SCCS2)C(=O)N1[C@@H](CO)[C@@H](O)c1ccc([N+](=O)[O-])cc1 [Compound 140],TEM-1,[1],xx
same,OXA-10,[2],xx
same,P99,[3],xx
CCCCOC(=O)c1ccc(NC(=O)Nc2ccccc2C(=O)O)cc1 [Compound 325],MIC,[4],256 µg/mL
same,MIC,[5],256 µg/mL
O=C(O)c1c(F)c(F)c(F)c(F)c1C(=O)Nc1ccc(OCC(O)COCC2CC2)c(Cl)c1 (stereo not shown) [Compound 354],MIC,[4],500 µg/mL
same,MIC,[5],500 µg/mL
O=C(O)c1c(Cl)c(Cl)c(Cl)c(Cl)c1C(=O)Nc1cccc(Oc2ccccc2)c1 [Compound 268],TEM-1,[1],xxx
same,P99,[3],xx
CCCCCCCCOc1ccc(NC(=O)c2c(Cl)c(Cl)c(Cl)c(Cl)c2C(=O)O)c[n+]1[O-] [Compound 358],OXA-10,[2],xxx
CCCCCCCCOc1ccc(N(C)C(=O)c2c(F)c(F)c(F)c(F)c2C(=O)O)cc1 [Compound 305],MIC,[5]; [6],16 µg/mL
same,OXA-10,[2],xx
same,P99,[3],xx
O=C(O)c1cccc([N+](=O)[O-])c1C(=O)Nc1ccc(OCc2cccc(OC(F)(F)F)c2)c(Cl)c1 [Compound 421],MIC,[5]; [6],250 µg/mL
CCCCOC(=O)c1ccc(NC(=O)N(C)c2ccccc2C(=O)O)cc1 [Compound 326],MIC,[4],"2,000 μg/mL"
same,MIC,[5],"2,000 μg/mL"
CCCCOC(=O)c1ccc(NC(=O)c2ccccc2C(=O)O)cc1 [Compound 331],MIC,[4]; [6],2000 µg/mL
same,MIC,[5]; [6],2000 µg/mL
O=C(O)c1ccncc1C(=O)Nc1ccc(OCc2cccc(OC(F)(F)F)c2)c(Cl)c1 [Compound 424],MIC,[5]; [6],> 250 µg/mL
O=C(O)c1c(Br)c(Br)c(Br)c(Br)c1C(=O)Nc1ccc(CO)cc1 [Compound 223],TEM-1,[1],xxx
same,OXA-10,[2],xxx
same,P99,[3],xxx
O=C(O)c1c(Cl)c(Cl)c(Cl)c(Cl)c1C(=O)Nc1ccc(CO)cc1 [Compound 254],OXA-10,[2],xx
CCCCCCCCOc1ccc(NC(=O)c2c(F)c(F)c(F)c(F)c2C(=O)O)cn1 [Compound 344],MIC,[4]; [6],256 µg/mL
same,MIC,[5]; [6],256 µg/mL
CCCCCCCCOc1ccc(N)cc1Cl [Compound 299],MIC,[5]; [6],16 µg/mL
O=C(O)CC1(CC(=O)Nc2ccc(Cl)c(C(F)(F)F)c2)CCCC1 [Compound 246],OXA-10,[2],xx
COCCOCCOc1ccc(NC(=O)c2c(F)c(F)c(F)c(F)c2C(=O)O)cn1 [Compound 401],MIC,[4],">2,000 μg/mL"
same,MIC,[5],">2,000 μg/mL"
COCCOCCOc1ccc(NC(=O)c2c(Br)c(Br)c(Br)c(Br)c2C(=O)O)c[n+]1[O-] [Compound 410],MIC,[4]; [6],500 µg/mL
same,MIC,[5]; [6],500 µg/mL
CCCCOC(=O)c1ccc(NC(=O)C2CCC(C)CC2C(=O)O)cc1 (stereo not shown) [Compound 337],MIC,[4],"2,000 μg/mL"
same,MIC,[5],"2,000 μg/mL"
O=C1C2=C(SCCS2)C(=O)N1C(CO)[C@H](O)c1ccccc1 (stereo partly shown) [Compound 138],TEM-1,[1],xxx
same,P99,[3],xxx
CCCCCCCCOc1ccc(N2C(=O)c3c(Br)c(Br)c(Br)c(Br)c3C2=O)cc1 [Compound 230],MIC,[5]; [6],> 16 µg/mL
CC(=O)OCC1=C(C(=O)O)N2C(=O)C(N3C(=O)C4=C(SCCS4)C3=O)C2SC1 (stereo not shown) [Compound 118],P99,[3],xxx
O=C(O)c1c(Br)c(Br)c(Br)c(Br)c1C(=O)Nc1ccc(OCc2ccccc2)nc1 [Compound 365],MIC,[4]; [6],8 µg/mL
same,inhibitory properties (in words),[4],significant inhibitory properties
same,MIC,[5]; [6],16 µg/mL
same,inhibitory activity (in words),[5],significant inhibitory activity
same,OXA-10,[2],xx
CCCCOC(=O)c1ccc(NC(=O)c2c(F)c(F)c(F)c(F)c2C(=O)O)cc1 [Compound 332],MIC,[4]; [6],2000 µg/mL
same,MIC,[5]; [6],2000 µg/mL
COCCOCCOc1ccc(NC(=O)c2c(Br)c(Br)c(Br)c(Br)c2C(=O)O)cn1 [Compound 403],MIC,[4],">2,000 μg/mL"
same,MIC,[5],">2,000 μg/mL"
Cc1ccccc1COc1ccc(NC(=O)c2ccccc2C(=O)O)cc1Cl [Compound 383],MIC,[4],128 µg/mL
same,MIC,[5],128 µg/mL
CCCCCCCCOc1ccc(NC(=O)c2c(F)c(F)c(F)c(F)c2C(=O)O)c[n+]1[O-] [Compound 359],MIC,[4]; [6],1000 µg/mL
same,MIC,[5]; [6],1000 µg/mL
CCCCCCCCOc1ccc(NC(=O)c2ccccc2C(=O)O)cn1 [Compound 343],MIC,[4]; [6],256 µg/mL
same,MIC,[5]; [6],256 µg/mL
CC(Oc1ccc(NC(=O)c2ccccc2C(=O)O)cc1Cl)c1ccccc1 (stereo not shown) [Compound 379],MIC,[4],">2,000 μg/mL"
same,MIC,[5],">2,000 μg/mL"
CCCCOC(=O)c1ccc(NC(=O)c2c(Br)c(Br)c(Br)c(Br)c2C(=O)O)cc1 [Compound 334],MIC,[4]; [6],128 µg/mL
same,MIC,[5]; [6],128 µg/mL
CCCCCCCCOc1ccc(NC(=O)c2c(Br)c(Br)c(Br)c(Br)c2C(=O)O)c[n+]1[O-] [Compound 360],TEM-1,[1],xx
same,OXA-10,[2],xxx
O=C(O)c1cccc([N+](=O)[O-])c1C(=O)Nc1ccc(OCc2ccccc2)nc1 [Compound 392],MIC,[4],500 µg/mL
same,MIC,[5],500 µg/mL
O=C(Nc1ccc(Cl)c(C(F)(F)F)c1)c1cccc([N+](=O)[O-])c1C(=O)O [Compound 86],TEM-1,[1],xx
CC(Oc1ccc(NC(=O)c2c(Cl)c(Cl)c(Cl)c(Cl)c2C(=O)O)cc1Cl)c1ccccc1 (stereo not shown) [Compound 381],MIC,[4]; [6],16 µg/mL
same,inhibitory properties (in words),[4],significant inhibitory properties
same,MIC,[5]; [6],32 µg/mL
same,inhibitory activity (in words),[5],significant inhibitory activity
same,OXA-10,[2],xxx
N#Cc1cccc(NC(=O)c2c(Br)c(Br)c(Br)c(Br)c2C(=O)[O-])c1.[Na+] [Compound 201],TEM-1,[1],xx
same,OXA-10,[2],xx
same,P99,[3],xxx
CCCCCCCCOc1ccc(N(C)C(=O)c2c(Br)c(Br)c(Br)c(Br)c2C(=O)O)cc1 [Compound 307],OXA-10,[2],xxx
O=C(O)c1c(F)c(F)c(F)c(F)c1C(=O)Nc1ccc(OCc2ccccc2)nc1 [Compound 363],MIC,[4],">2,000 μg/mL"
same,MIC,[5],">2,000 μg/mL"
O=C(O)c1c(Br)c(Br)c(Br)c(Br)c1C(=O)Nc1ccc(Cl)c(C(F)(F)F)c1 [Compound 89],TEM-1,[1],xx
same,OXA-10,[2],xxx
same,P99,[3],xxx
CC(Oc1ccc(NC(=O)c2c(C(=O)O)cccc2[N+](=O)[O-])cc1Cl)c1ccccc1 (stereo not shown) [Compound 391],MIC,[4],500 µg/mL
same,MIC,[5],500 µg/mL
NC(=O)C1=C(C(=O)O)SCCS1 [Compound 120],OXA-10,[2],xx
O=C(O)c1cccnc1C(=O)Nc1ccc(OCc2cccc(OC(F)(F)F)c2)c(Cl)c1 [Compound 423],MIC,[5]; [6],250 µg/mL
CC(C)C[C@@H](C(=O)O)C(C(=O)O)C(=O)OC(C)(C)C (stereo partly shown) [Compound 330],MIC,[4],"2,000 μg/mL"
same,MIC,[5],"2,000 μg/mL"
CCCCCCCCOc1ccc(NC(=O)c2ccccc2C(=O)O)c[n+]1[O-] [Compound 357],MIC,[4]; [6],> 2000 µg/mL
same,MIC,[5]; [6],> 2000 µg/mL
CCCCCCCCOc1ccc(N(C)C(=O)c2c(Cl)c(Cl)c(Cl)c(Cl)c2C(=O)OC)cc1 [Compound 282],OXA-10,[2],xxx
O=C(O)c1c(Br)c(Br)c(Br)c(Br)c1C(=O)Nc1cccc(C(F)(F)F)c1 [Compound 196],TEM-1,[1],xx
same,P99,[3],xx
